# How the values were obtained:
# [1] = tested on: CETresistant E. coli (3) and K. pneumoniae (2); experiment: In vitro MIC, two-fold serial agar dilution in Mueller-Hinton agar, GnIb strains; type: cell-based; conditions: Escherichia coli, 5 strains, read-out: Geometric mean of MIC, GnIb
# Procedure: (§1) The in vitro antibacterial activity of the parent cephalosporanic acids of Formula I wherein R^4 is hydrogen is shown in Table 1 in terms of geometric mean of the Minimum Inhibitory Concentrations (MIC's) which were determined by the two-fold serial agar dilution method in Mueller-Hinton agar against 25 strains of test organisms in five groups.
# GnIb: CETresistant E. coli (3) and K. pneumoniae (2)
# [2] = tested on: M. morcanii (1), E. cloacae (2) and S. marcescens (2); experiment: In vitro MIC, two-fold serial agar dilution in Mueller-Hinton agar, GnII strains; type: cell-based; conditions: Enterobacter cloacae, read-out: Geometric mean of MIC, GnII
# Procedure: as §1
# GnII: M. morcanii (1), E. cloacae (2) and S. marcescens (2)
smiles,measurement,setting,value
"C/C=C\C1=C(C(=O)O)N2C(=O)[C@@H](NC(=O)/C(=N\O)c3csc(N)n3)[C@H]2SC1 [Compound 29, 7β-[(Z)-2-(2-aminothiazol-4-yl)-2-(hydroxyimino)acetamido]-3-[(Z)-prop-1-en-1-yl]-3-cephem-4-carboxylic acid]",MIC,[1],0.35 µg/mL
same,MIC,[2],6.3 µg/mL

# — US4874856A, “3-(substituted)propenyl-7-(aminothiazolylacetamido) ceph-3-em-4-carboxylic acids and esters thereof” (Bristol-Myers Company, priority 1987, dated 1989)
